Series [1] can be described thus: Rat plasma pharmacokinetics, solution formulations of C16, cyclohexyl and 5-decanyl esters, 3 mg-eq/kg i.v. The conditions noted are these: solution formulation 3 mg-eq/kg i.v. It counts as in vivo.
Description: (§2) Plasma and other tissues were prepared for high performance liquid chromatography (HPLC)/mass spectrometric analysis according to a standard protocol following protein precipitation with acetonitrile containing an internal standard. The samples were then analyzed for both bendamustine HCl and bendamustine esters of the invention and alprenolol (internal standard) via HPLC coupled with tandem mass spectrometry. Tissue samples were homogenized in sodium phosphate buffer and the value obtained from the assay was multiplied by 3 to correct for dilution during processing.
(§3) Adult animals (Charles River, Kingston, N.Y.; n=3 or 4/time point) were used in all experiments. The mice or rats were not fasted overnight prior to IV dose administration via the lateral tail vein. IV doses were administered in a fixed dose volume of 100 μL in mice or a dose volume of 1 mL/kg in rats. The mice were sacrificed by decapitation and trunk blood was collected into heparinized tubes at the sampling times stipulated. For blood collection, each rat (unanesthetized) was placed in a clear Plexiglas® restraining tube, and blood samples (approximately 0.25 mL) were drawn from a lateral tail vein into heparinized collection tubes at the sampling times stipulated. (Note: No pre-dose samples were obtained.) The exception to this procedure was the last sampling time in which the rats were sacrificed by decapitation and trunk blood was obtained rather than blood via a tail vein. The blood samples were placed on wet ice until centrifuged to separate plasma. The plasma fraction was transferred into clean, dry tubes, frozen on dry ice and stored at approximately −20° C. pending analysis. Whole brains and other highly perfused organs (liver, lung, spleen, kidney and heart) were rapidly removed at the predetermined time points and frozen on dry ice. All tissue samples were also stored at approximately −20° C. pending analysis.
(§4) The plasma concentration data for all mice and rats were entered into Excel spreadsheets in preparation for pharmacokinetic analysis. Mean pharmacokinetic parameters were estimated by non-compartmental analysis (Gibaldi and Perrier 1982) of the plasma concentration versus time data using WinNonlin software (Professional Version 4.1, Pharsight Corporation, Palo Alto, Calif.). The terminal rate constant for elimination from plasma (β) was estimated by linear regression of the terminal portion of the semi-logarithmic plasma concentration versus time curve. The apparent terminal half-life (t1/2) was calculated as 0.693 divided by β. The area under the plasma concentration versus time curve from time zero to the time of the last measurable concentration (AUC0-t) after a single dose was determined by the linear trapezoidal rule. The area from zero to infinity (AUC0-∞) was calculated as the sum of AUC0-t and the area extrapolated from the last measurable concentration to infinity (Clast/β). Concentrations pre-dose were all assumed to be zero for the purpose of calculation of the AUC. Any concentration that was below the limit of quantification (BLQ) after the last quantifiable sampling time was considered to be an empty value for the purpose of calculation of the AUC; it was treated as zero for the calculation of the mean concentration for a given sampling time.
The next series has as its system MB-231 (HBC). As to the kind of experiment: MTS cell assay, MB-231. The conditions noted are these: 72 hours. It counts as cell-based, Human. As for the experimental part:
Charles River Labs athymic nude mice bearing MDA-MB-231 breast carcinoma cell line subcutaneous xenografts (5×10^6 cells in matrigel) were sacrificed to make a tumor isolate. Using sterile instruments and working aseptically, the tumors were removed from the euthanized animal. The tumor was placed in a 50 mL sterile conical tube and 5 mL of trypsin was added. The tumor was cut into small pieces and incubated at 37° C. for 30 minutes. After incubation, a cell strainer was placed on a second, sterile, 50 mL conical tube and the contents of the first tube were placed in the cell strainer. The tissue was forced through the filter using the flat end of a syringe plunger. The cell strainer was washed with 5 mLs of media containing FBS. The cells were spun down and the supernatant was discarded. The cells were resuspended in 20 mLs of complete media containing P/S and placed in a 75 cm flask.
(§1) Human carcinoma cells (2,000 cells/well) were incubated with the desired concentration of the test molecule (0-200 μM) for 72 hours. The cells were then incubated with MTS solution (Promega) for 1-2 hours, and the compounds effects on cell proliferation was determined by measuring the absorbance at 490 nm. Cell growth was expressed as a percent of the appropriate control (placebo). […] All data reported was the mean±SE of three independent experiments.
A general note: Formazan colour is commonly taken as a measure of viable cells.

Series [2] can be described thus: Rat plasma, blood and organ pharmacokinetics after bendamustine C12 ester 30 mg/kg i.v. To be noted: 1 mL/kg. It counts as in vivo.
Description: as §2, §3, §4
Another series concerns H-460 (NSCLC). As to the kind of experiment: MTS cell assay, H-460. The class given is cell-based, Human. As for the experimental part:
as §1

Setting [3] is: C12 ester Nanoparticle Formulation.
Setting [4] is: Homo sapiens, NCI-H460, 72 hours.

A value given as a limit tells only on which side of the number the result lay.

`CCCCCC(CCCC)OC(=O)CCCc1nc2cc(N(CCCl)CCCl)ccc2n1C` (stereo not drawn) [5-decanyl ester, 4-{5-[Bis-(chloroethyl)-amino]-1-methyl-1H-benzimidazol-2-yl}butyric acid 5-decyl ester]: in series [1], the “Plasma levels of Ester” value was “All < MQL”.
Usually IC50 stands for the concentration needed to halve the response being measured. Lower therefore signals inhibition by little substance. Regarding `CCCCCCCCCCCCOC(=O)CCCc1nc2cc(N(CCCl)CCCl)ccc2n1C` [Bendamustine C12 Ester, 4-{5-[Bis-(chloroethyl)-amino]-1-methyl-1H-benzimidazol-2-yl}butyric aid dodecyl ester], inhibition in the series on MB-231 (HBC) was half-maximal at 33.3 µM (IC50). Besides, in series [2] (C12 ester Liquid Formulation), the “AUC0-t of C12 Ester, Blood” value was determined as 4424 ng·h/mL; the “AUC0-t of C12 Ester, Brain” value came out at 299 ng·h/mL; the “AUC0-t of C12 Ester, Kidney” value came to 2383 ng·h/mL; the “AUC0-t of C12 Ester, Liver” value was 2564 ng·h/mL. In addition, in series [2] (C12 ester Liquid Formulation), the “AUC0-t of C12 Ester, Lung” value came to 12619 ng·h/mL; the “AUC0-t of C12 Ester, Spleen” value worked out at 25874 ng·h/mL; the “AUC0-∞ of C12 Ester, Kidney” value is 2605 ng·h/mL; the “AUC0-∞ of C12 Ester, Liver” value is 2586 ng·h/mL. Moreover, in series [2] (C12 ester Liquid Formulation), the “AUC0-∞ of C12 Ester, Lung” value was determined as 13246 ng·h/mL; the “AUC0-∞ of C12 Ester, Spleen” value is 25927 ng·h/mL; the “t1/2 of C12 Ester, Kidney” value is 5.3 h; the “t1/2 of C12 Ester, Liver” value was 0.8 h. In addition, in series [2] (C12 ester Liquid Formulation), the “t1/2 of C12 Ester, Lung” value is reported as 7.6 h and the “t1/2 of C12 Ester, Spleen” value is 3.1 h. For the same compound, in series [2] (setting [3]), the “AUC0-t of C12 Ester, Blood” value came to 951 ng·h/mL; the “AUC0-t of C12 Ester, Brain” value worked out at 149 ng·h/mL; the “AUC0-t of C12 Ester, Kidney” value turned out to be 1766 ng·h/mL; the “AUC0-t of C12 Ester, Liver” value came out at 13355 ng·h/mL. Further, in series [2] (setting [3]), the “AUC0-t of C12 Ester, Lung” value was determined as 28327 ng·h/mL; the “AUC0-t of C12 Ester, Spleen” value is 13111 ng·h/mL; the “AUC0-∞ of C12 Ester, Kidney” value was 1802 ng·h/mL; the “AUC0-∞ of C12 Ester, Liver” value worked out at 13586 ng·h/mL. In series [2] (setting [3]), the “AUC0-∞ of C12 Ester, Lung” value was found to be 32297 ng·h/mL; the “AUC0-∞ of C12 Ester, Spleen” value was found to be 13578 ng·h/mL; the “t1/2 of C12 Ester, Kidney” value is listed as 4.9 h; the “t1/2 of C12 Ester, Liver” value came out at 4.5 h. Besides, in series [2] (setting [3]), the “t1/2 of C12 Ester, Lung” value turned out to be 8.5 h and the “t1/2 of C12 Ester, Spleen” value is listed as 5.4 h. Further, the midpoint of inhibition with H-460 (NSCLC) (72 hours), the IC50, lay at 28.8 µM.
One may read the Vd as the apparent volume that relates the amount in the body to the concentration in plasma or blood. On to `CCCCCCCCCCCCCCCCOC(=O)CCCc1nc2cc(N(CCCl)CCCl)ccc2n1C` [C16 bendamustine ester, 4-{5-[Bis-(chloroethyl)-amino]-1-methyl-1H-benzimidazol-2-yl}butyric acid hexadecyl ester], for which the values for the IC50 in the series on MB-231 (HBC) (Homo sapiens) and with H-460 (NSCLC) (setting [4]) were greater than 200 µM and 77.8 µM, respectively. For the same compound, the AUC(0-t) in series [1] (plasma, iv, 3 mg/kg, Mean n = 3, read-out: AUC0-t of Ester in plasma) came out at 1210 ng·h/mL. Also, the AUC(0-inf) in series [1] (plasma, iv, 3 mg/kg, Mean n = 3, read-out: AUC0-∞ of Ester in plasma) turned out to be 1210 ng·h/mL. Besides, the clearance in series [1] (plasma, iv, 3 mg/kg, Mean n = 3, read-out: CL of Ester) was found to be 41 mL/min/kg. Further, the distribution volume (Vd) in series [1] (plasma, iv, 3 mg/kg, Mean n = 3, read-out: Vd of Ester) came out at 1 L/kg. For the same compound, the half-life in series [1] (plasma, iv, 3 mg/kg, Mean n = 3, read-out: t1/2 of Ester in plasma (converted)) is 0.28 h.
`Cn1c(CCCC(=O)OC2CCCCC2)nc2cc(N(CCCl)CCCl)ccc21` [Cy-hexyl bendamustine ester, 4-{5-[Bis-(chloroethyl)-amino]-1-methyl-1H-benzimidazol-2-yl}butyric acid cyclohexyl ester]: the “Plasma levels of Ester” value in series [1] is reported as “All < MQL”.
On to `CCCCOC(=O)CCCc1nc2cc(N(CCCl)CCCl)ccc2n1C` [—C4H9, 4-{5-[Bis-(chloroethyl)-amino]-1-methyl-1H-benzimidazol-2-yl}butyric acid butyl ester], for which the half-maximal inhibitory concentration (IC50) with MB-231 (HBC) (Homo sapiens) was found to be 13.3 µM; with H-460 (NSCLC) (setting [4]) it was 15.7 µM.
In the case of `CCCCCCOC(=O)CCCc1nc2cc(N(CCCl)CCCl)ccc2n1C` [—C6H13, 4-{5-[Bis-(chloroethyl)-amino]-1-methyl-1H-benzimidazol-2-yl}butyric acid hexyl ester], the figures for the 50% inhibitory concentration (IC50) in the series on MB-231 (HBC) (Homo sapiens) and in the series on H-460 (NSCLC) (setting [4]) were 43.7 µM and 7.4 µM, respectively.
As to `CCCCCCCCOC(=O)CCCc1nc2cc(N(CCCl)CCCl)ccc2n1C` [—C8H17, 4-{5-[Bis-(chloroethyl)-amino]-1-methyl-1H-benzimidazol-2-yl}butyric aid octyl ester], in the series on H-460 (NSCLC) (72 hours), the half-inhibitory concentration (IC50) was 49 µM.
Take `CCCCCCCCCCOC(=O)CCCc1nc2cc(N(CCCl)CCCl)ccc2n1C` [—C10H21, 4-{5-[Bis-(chloroethyl)-amino]-1-methyl-1H-benzimidazol-2-yl}butyric acid decyl ester]: the values for the IC50 with MB-231 (HBC) (Homo sapiens) and in the series on H-460 (NSCLC) (setting [4]) were 38.9 µM and 23.8 µM, respectively.
Consider `CCCCCCCCCCCCCCCOC(=O)CCCc1nc2cc(N(CCCl)CCCl)ccc2n1C` [—C15H31, 4-{5-[Bis-(chloroethyl)-amino]-1-methyl-1H-benzimidazol-2-yl}butyric acid pentadecyl ester], for which the IC50 in the series with MB-231 (HBC) (Homo sapiens) and in the series on H-460 (NSCLC) (setting [4]) was greater than 200 µM throughout.

The values above are taken from patent US9452988B2, “Bendamustine derivatives and methods of using same” (Ignyta, Inc., priority 2012, dated 2016).
